In brackets after ≈: the same amount, converted by molar mass.
Columns and labels:
[1] = target: Peptidyl-prolyl cis-trans isomerase A (Homo sapiens, UniProt P62937)
[2] = physchem

Peptidyl-prolyl cis-trans isomerase A, sequence (P62937 whole entry): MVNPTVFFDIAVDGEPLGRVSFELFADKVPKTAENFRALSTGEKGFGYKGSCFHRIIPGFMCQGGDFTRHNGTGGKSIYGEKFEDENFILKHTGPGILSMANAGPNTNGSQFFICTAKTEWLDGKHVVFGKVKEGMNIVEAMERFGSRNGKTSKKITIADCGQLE

O=C(Nc1ccc([N+](=O)[O-])cc1)Nc1ncccc1OCc1ccccc1
IC50 [1]: 10 µM | solubility [2]: 20 µM (≈ 7.29 µg/mL)
